Target: T1, human capsaicin receptor (Homo sapiens, UniProt Q8NER1)
T1 construct: expressed in transfected cells; host or cells: HEK293, stably transfected with pBK-CMV construct
Assay: Calcium mobilization assay, determination of antagonist activity
Type: cell-based
Conditions: capsaicin at EC50; cells expressing human capsaicin receptor; Example 6
Outline: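 IC50 is the antagonist level giving a 50% drop in the capsaicin (EC50) calcium signal, read by FLIPR in Fluo-3 AM-loaded stable HEK293 lines bearing full-length human receptor. Compounds at 1-5 µM final were preincubated 0.5-6 h, room temperature, dark, in KRH pH 7.4.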

T1 sequence (Q8NER1 whole entry): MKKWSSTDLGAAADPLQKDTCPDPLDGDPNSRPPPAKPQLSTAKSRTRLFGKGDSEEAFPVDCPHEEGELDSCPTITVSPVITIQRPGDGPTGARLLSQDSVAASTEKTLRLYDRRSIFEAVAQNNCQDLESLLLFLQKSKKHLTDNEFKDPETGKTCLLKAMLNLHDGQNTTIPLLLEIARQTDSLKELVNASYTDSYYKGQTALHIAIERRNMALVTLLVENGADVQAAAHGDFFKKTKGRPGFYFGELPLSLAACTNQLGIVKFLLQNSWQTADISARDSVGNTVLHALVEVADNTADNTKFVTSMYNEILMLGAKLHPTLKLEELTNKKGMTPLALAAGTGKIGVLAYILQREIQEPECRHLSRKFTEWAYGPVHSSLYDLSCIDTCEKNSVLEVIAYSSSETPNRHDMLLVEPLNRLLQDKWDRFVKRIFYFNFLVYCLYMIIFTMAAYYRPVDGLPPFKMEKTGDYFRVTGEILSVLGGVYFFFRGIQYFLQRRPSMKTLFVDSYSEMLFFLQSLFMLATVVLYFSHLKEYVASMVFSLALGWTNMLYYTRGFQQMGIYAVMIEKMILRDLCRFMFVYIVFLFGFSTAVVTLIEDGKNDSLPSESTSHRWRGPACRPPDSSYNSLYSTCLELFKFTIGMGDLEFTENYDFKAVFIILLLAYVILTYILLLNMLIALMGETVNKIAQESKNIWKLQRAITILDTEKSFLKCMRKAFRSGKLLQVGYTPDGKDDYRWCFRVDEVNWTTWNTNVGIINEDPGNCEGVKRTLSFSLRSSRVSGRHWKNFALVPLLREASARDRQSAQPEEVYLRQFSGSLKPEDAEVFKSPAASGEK

IC50, ≤ 1 µM:
Cc1cc(C(N)=O)cnc1N1CCN(c2cc(-c3ccnc(C(C)C)c3)nc(N3CCCC3C)n2)CC1 (stereo not shown) [Example 90, 6-{4-[6-(2-Isopropyl-pyridin-4-yl)-2-(2-methyl-pyrrolidin-1-yl)-pyrimidin-4-yl]-piperazin-1-yl}-5-methyl-nicotinamide]
Cc1cc(C(=N)N)cnc1N1CCN(c2cc(-c3ccc(F)cc3)nc(N3CCCC3C)n2)CC1 (stereo not shown) [Example 91, 6-{4-[6-(4-fluorophenyl)-2-(2-methylpyrrolidin-1-yl)pyrimidin-4-yl]piperazin-1-yl}-5-methylpyridine-3-carboximidamide]
C[C@@H]1CCCN1c1nc(-c2ccc(F)cc2)cc(N2CCN(c3ncc(C(=O)O)cc3Cl)CC2)n1 [Example 92, 5-Chloro-6-{4-[6-(4-fluoro-phenyl)-2-(2-(R)-methyl-pyrrolidin-1-yl)-pyrimidin-4-yl]-piperazin-1-yl}-nicotinic acid]
C[C@@H]1CCCN1c1nc(-c2ccc(F)cc2)cc(N2CCN(c3ncc(CC(=O)O)cc3Cl)CC2)n1 [Example 93, (5-Chloro-6-{4-[6-(4-fluoro-phenyl)-2-(2-(R)-methyl-pyrrolidin-1-yl)-pyrimidin-4-yl]-piperazin-1-yl}-pyridin-3-yl)-acetic acid]
C[C@@H]1CN(c2ncc(C(=O)O)cc2Cl)CCN1c1cc(-c2ccc(F)cc2)nc(N2CCC[C@H]2C)n1 [Example 94, 5-Chloro-6-{4-[6-(4-fluoro-phenyl)-2-(2-(R)-methyl-pyrrolidin-1-yl) - pyrimidin-4-yl]-3-(R)-methyl-piperazin-1-yl} - nicotinic acid]
Cc1cc(C(=O)O)cnc1N1CCN(c2cc(-c3ccc(F)cc3)nc(N3CCC[C@H]3C)n2)[C@H](C)C1 [Example 95, 6-{4-[6-(4-Fluoro-phenyl)-2-(2-(R)-methyl-pyrrolidin-1-yl)-pyrimidin-4-yl]-3-(R)-methyl-piperazin-1-yl}-5-methyl-nicotinic acid]
Cc1cc(C(=O)O)cnc1N1CCN(c2cc(-c3ccccc3)nc(N3CCC[C@H]3C)n2)[C@H](C)C1 [Example 96, 5-Methyl-6-{3-(R)-methyl-4-[2-(2-(R)-methyl-pyrrolidin-1-yl)-6-phenyl-pyrimidin-4-yl]-piperazin-1-yl}-nicotinic acid]
CC1CCCN1c1nc(-c2ccc(F)c(Cl)c2)cc(N2CCN(c3ncc(C(N)=O)cn3)CC2)n1 (stereo not shown) [Example 97, 2-{4-[6-(3-Chloro-4-fluoro-phenyl)-2-(2-methyl-pyrrolidin-1-yl)-pyrimidin-4-yl]-piperazin-1-yl}-pyrimidine-5-carboxylic acid amide]
C[C@@H]1CN(c2ncc(CO)cc2Cl)CCN1c1cc(-c2ccc(F)cc2)nc(N2CCC[C@H]2C)n1 [Example 98, (5-Chloro-6-{4-[6-(4-fluoro-phenyl)-2-(2-(R)-methyl-pyrrolidin-1-yl)-pyrimidin-4-yl]-3-(R)-methyl-piperazin-1-yl}-pyridin-3-yl)-methanol]
Cc1cc(C(=O)O)cnc1N1CCN(c2cc(-c3ccc(F)cc3)nc(N3CCC[C@@H]3C)n2)[C@H](C)C1 [Example 99, 6-{4-[6-(4-Fluoro-phenyl)-2-(2-(S)-methyl-pyrrolidin-1-yl)-pyrimidin-4-yl]-3-(R)-methyl-piperazin-1-yl}-5-methyl-nicotinic acid]
C[C@@H]1CN(c2ncc(CC#N)cc2Cl)CCN1c1cc(-c2ccc(F)cc2)nc(N2CCC[C@H]2C)n1 [Example 100, (5-Chloro-6-{4-[6-(4-fluoro-phenyl)-2-(2-(R)-methyl-pyrrolidin-1-yl)-pyrimidin-4-yl]-3-(R)-methyl-piperazin-1-yl}-pyridin-3-yl)-acetonitrile]
C[C@@H]1CN(c2ncc(CC(=O)O)cc2Cl)CCN1c1cc(-c2ccc(F)cc2)nc(N2CCC[C@H]2C)n1 [Example 101, (5-Chloro-6-{4-[6-(4-fluoro-phenyl)-2-(2-(R)-methyl-pyrrolidin-1-yl)-pyrimidin-4-yl]-3-(R)-methyl-piperazin-1-yl}-pyridin-3-yl)-acetic acid]
C[C@@H]1CN(c2ncc(C(N)=O)cc2Cl)CCN1c1cc(-c2ccc(F)c(Cl)c2)nc(N2CCC[C@H]2C)n1 [Example 102, 5-Chloro-6-{4-[6-(3-chloro-4-fluoro-phenyl)-2-(2-(R)-methyl-pyrrolidin-l-yl)-pyrimidin-4-yl]-3-(R)-methyl-piperazin-1-yl}-nicotinamide]
C[C@@H]1CN(c2ncc(C(=O)O)cc2Cl)CCN1c1cc(-c2ccc(F)c(Cl)c2)nc(N2CCC[C@H]2C)n1 [Example 103, 5-Chloro-6-{4-[6-(3-chloro-4-fluoro-phenyl)-2-(2-(R)-methyl-pyrrolidin-l-yl)-pyrimidin-4-yl]-3-(R)-methyl-piperazin-1-yl}-nicotinic acid]
C[C@@H]1CN(c2ncc(C(=O)O)cc2Cl)CCN1c1cc(-c2ccc(F)cc2)nc(N2CCOC[C@H]2C)n1 [Example 104, 5-Chloro-6-{4-[6-(4-fluoro-phenyl)-2-(3-(R)-methyl-morpholin-4-yl)-pyrimidin-4-yl]-3-(R)-methyl-piperazin-1-yl}-nicotinic acid]
Cc1cc(CC(=O)O)cnc1N1CCN(c2cc(-c3ccc(F)cc3)nc(N3CCC[C@H]3C)n2)[C@H](C)C1 [Example 105, (6-{4-[6-(4-Fluoro-phenyl)-2-(2-(R)-methyl-pyrrolidin-1-yl)-pyrimidin-4-yl]-3-(R)-methyl-piperazin-1-yl}-5-methyl-pyridin-3-yl)-acetic acid]
Cc1cc(C(=O)NC2CC2)cnc1N1CCN(c2cc(-c3ccc(F)cc3)nc(N3CCCC3C)n2)CC1 (stereo not shown) [Example 106, N-Cyclopropyl-6-{4-[6-(4-fluoro-phenyl)-2-(2-methyl-pyrrolidin-1-yl)-pyrimidin-4-yl]-piperazin-1-yl}-5-methyl-nicotinamide]
Cc1cc(C(=O)NC2CCC2)cnc1N1CCN(c2cc(-c3ccc(F)cc3)nc(N3CCCC3C)n2)CC1 (stereo not shown) [Example 107, N-cyclobutyl-6-{4-[6-(4-fluorophenyl)-2-(2-methylpyrrolidin-1-yl)pyrimidin-4-yl]piperazin-1-yl}-5-methylnicotinamide]
Cc1cc(C(=O)NC2CCCC2)cnc1N1CCN(c2cc(-c3ccc(F)cc3)nc(N3CCCC3C)n2)CC1 (stereo not shown) [Example 108, N-Cyclopentyl-6-{4-[6-(4-fluoro-phenyl)-2-(2-methyl-pyrrolidin-1-yl)-pyrimidin-4-yl]-piperazin-1-yl}-5-methyl-nicotinamide]
COCCNC(=O)c1cnc(N2CCN(c3cc(-c4ccc(F)cc4)nc(N4CCCC4C)n3)CC2)c(C)c1 (stereo not shown) [Example 109, 6-{4-[6-(4-fluorophenyl)-2-(2-methylpyrrolidin-1-yl)pyrimidin-4-yl]piperazin-1-yl}-N-(2-methoxyethyl)-5-methylnicotinamide]
COCCCNC(=O)c1cnc(N2CCN(c3cc(-c4ccc(F)cc4)nc(N4CCCC4C)n3)CC2)c(C)c1 (stereo not shown) [Example 110, 6-{4-[6-(4-fluorophenyl)-2-(2-methylpyrrolidin-1-yl)pyrimidin-4-yl]piperazin-1-yl}-N-(3-methoxypropyl)-5-methylnicotinamide]
Cc1cc(C(=O)NCC2CCCO2)cnc1N1CCN(c2cc(-c3ccc(F)cc3)nc(N3CCCC3C)n2)CC1 (stereo not shown) [Example 111, 6-{4-[6-(4-fluorophenyl)-2-(2-methylpyrrolidin-1-yl)pyrimidin-4-yl]piperazin-1-yl}-5-methyl-N-(tetrahydrofuran-2-ylmethyl)nicotinamide]
CCOCCCNC(=O)c1cnc(N2CCN(c3cc(-c4ccc(F)cc4)nc(N4CCCC4C)n3)CC2)c(C)c1 (stereo not shown) [Example 112, N-(3-ethoxypropyl)-6-{4-[6-(4-fluorophenyl)-2-(2-methylpyrrolidin-1-yl)pyrimidin-4-yl]piperazin-1-yl}-5-methylnicotinamide]
Cc1cc(C(=O)NCc2ccccc2)cnc1N1CCN(c2cc(-c3ccc(F)cc3)nc(N3CCCC3C)n2)CC1 (stereo not shown) [Example 113, N-benzyl-6-{4-[6-(4-fluorophenyl)-2-(2-methylpyrrolidin-1-yl)pyrimidin-4-yl]piperazin-1-yl}-5-methylnicotinamide]
Cc1cc(C(=O)NCc2ccc(F)cc2)cnc1N1CCN(c2cc(-c3ccc(F)cc3)nc(N3CCCC3C)n2)CC1 (stereo not shown) [Example 114, N-(4-fluorobenzyl)-6-{4-[6-(4-fluorophenyl)-2-(2-methylpyrrolidin-1-yl)pyrimidin-4-yl]piperazin-1-yl}-5-methylnicotinamide]
COc1ccc(CNC(=O)c2cnc(N3CCN(c4cc(-c5ccc(F)cc5)nc(N5CCCC5C)n4)CC3)c(C)c2)cc1 (stereo not shown) [Example 115, 6-{4-[6-(4-fluorophenyl)-2-(2-methylpyrrolidin-1-yl)pyrimidin-4-yl]piperazin-1-yl}-N-(4-methoxybenzyl)-5-methylnicotinamide]
Cc1cc(C(=O)NCCCN(C)C)cnc1N1CCN(c2cc(-c3ccc(F)cc3)nc(N3CCCC3C)n2)CC1 (stereo not shown) [Example 116, N-[3-(dimethylamino)propyl]-6-{4-[6-(4-fluorophenyl)-2-(2-methylpyrrolidin-1-yl)pyrimidin-4-yl]piperazin-1-yl}-5-methylnicotinamide]
COCC(C)NC(=O)c1cnc(N2CCN(c3cc(-c4ccc(F)cc4)nc(N4CCCC4C)n3)CC2)c(C)c1 (stereo not shown) [Example 117, 6-{4-[6-(4-fluorophenyl)-2-(2-methylpyrrolidin-1-yl)pyrimidin-4-yl]piperazin-1-yl}-N-(2-methoxy-1-methylethyl)-5-methylnicotinamide]
